Laboratory results taken from article PMC11371790, “Combination of transcriptomic and proteomic approaches helps unravel the mechanisms of luteolin in inducing liver cancer cell death via targeting AKT1 and SRC” (Frontiers in Pharmacology, 2024).

What was measured:
SRC = SRC (Homo sapiens, UniProt P12931); experiment: bio-layer interferometry (biotinylated SRC on SSA sensor, Octet K2); assay type: binding
AKT1 = AKT1 (Homo sapiens, UniProt P31749); experiment: bio-layer interferometry (biotinylated active AKT1, Carna […]-101, on SSA sensor, Octet K2); assay type: binding
AKT1, sequence (P31749 whole entry): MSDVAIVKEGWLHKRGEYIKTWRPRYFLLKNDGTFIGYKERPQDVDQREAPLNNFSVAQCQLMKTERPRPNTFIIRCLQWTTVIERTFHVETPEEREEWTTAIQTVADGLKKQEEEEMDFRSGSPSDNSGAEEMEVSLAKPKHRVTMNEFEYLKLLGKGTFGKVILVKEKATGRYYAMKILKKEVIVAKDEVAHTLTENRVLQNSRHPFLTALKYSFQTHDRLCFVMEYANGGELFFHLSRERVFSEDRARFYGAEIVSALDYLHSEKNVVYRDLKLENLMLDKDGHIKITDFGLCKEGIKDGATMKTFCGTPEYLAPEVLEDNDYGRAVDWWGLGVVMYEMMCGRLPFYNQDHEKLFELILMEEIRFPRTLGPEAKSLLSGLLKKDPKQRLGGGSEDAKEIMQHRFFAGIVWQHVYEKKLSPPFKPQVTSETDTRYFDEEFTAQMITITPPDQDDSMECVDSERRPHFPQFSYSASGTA

SRC, sequence (P12931 2-536): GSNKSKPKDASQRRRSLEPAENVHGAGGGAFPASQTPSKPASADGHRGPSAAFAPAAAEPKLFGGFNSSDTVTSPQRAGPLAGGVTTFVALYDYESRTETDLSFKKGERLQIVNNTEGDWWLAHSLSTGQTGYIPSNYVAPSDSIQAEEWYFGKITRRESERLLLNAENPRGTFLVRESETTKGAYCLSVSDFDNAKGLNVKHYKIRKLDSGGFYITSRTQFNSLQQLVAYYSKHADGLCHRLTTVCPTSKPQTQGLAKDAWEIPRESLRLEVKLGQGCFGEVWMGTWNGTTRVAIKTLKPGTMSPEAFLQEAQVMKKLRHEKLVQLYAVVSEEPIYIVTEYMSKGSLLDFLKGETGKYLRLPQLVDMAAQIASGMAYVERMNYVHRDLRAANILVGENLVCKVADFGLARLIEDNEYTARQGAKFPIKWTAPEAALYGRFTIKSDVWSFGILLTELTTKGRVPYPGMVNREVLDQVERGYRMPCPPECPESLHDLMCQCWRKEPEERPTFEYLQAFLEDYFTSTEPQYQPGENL

Molecule O=c1cc(-c2ccc(O)c(O)c2)oc2cc(O)cc(O)c12 [Luteolin] has a Kd (SRC) of 1.7 µM and a Kd (AKT1) of 7.86 µM.
